Activity calls are given as the source filed them.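 Rule for the calls: active = cell-killing curve crosses a set limit at a concentration no more than twice the top valid dose; inconclusive = flat curve with a 30 to 70% loss, or a poor fit; inactive = signal rising instead of falling, and the rest.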
test: TC71 Ewing sarcoma cell killing, confirmation, luminescence, cherry-picked samples, retest (AID 720570); settings: TC71 Ewing sarcoma viability, CellTiter-Glo ATP, 72 h; at 23.5 µM (top of the series)

Compound | activity change, negative = cytotoxicity
O=S(=O)(c1ccc(F)cc1)N1C[C@H]2[C@@H](c3ccccc31)[C@H](CO)N2Cc1ccccc1Cl | -20.2% (inactive)
COC(=O)C[C@@H]1CC[C@H]2[C@H](COc3ccc(NC(=O)Nc4ccc(C#N)cc4)cc3C(=O)N2C)O1 | 4.96% (inactive)
COC(=O)C[C@@H]1CC[C@@H]2[C@@H](COc3ccc(NC(=O)Nc4ccccc4C)cc3C(=O)N2C)O1 | 14.2% (inactive)

same assay, conditions: TC71 Ewing sarcoma viability, CellTiter-Glo ATP, 72 h; at 26 µM (top of the series)

Compound | activity change, negative = cytotoxicity
COc1ccc(C/C(N)=N/OC(C)=O)cc1OC | 9.15% (inactive)
O=C(Cc1nn[nH]n1)c1ccccc1O | 13.8% (inactive)
CCOC(=O)c1c(-c2ccc(C)cc2)csc1NC(=O)CCN1CCOCC1 | 13.3% (inactive)
COc1ccccc1CNC(=O)C[C@@H]1CC[C@H]2[C@@H](COC[C@H](O)CN2C(=O)Nc2ccc(C(F)(F)F)cc2)O1 | -18.3% (inactive)
C/C(=N\N(c1ccccc1)c1ccccc1)c1ccco1 | 12.8% (inactive)
Cc1noc(C)c1NC(=O)Nc1ccc2c(c1)CC(=O)N([C@@H](C)CO)C[C@@H](C)[C@@H](CN(C)Cc1ccc(Cl)c(Cl)c1)O2 | -0.95% (inactive)
COC(=O)[C@H]1[C@H](CO)[C@H]2Cn3c(ccc(-c4ccccc4F)c3=O)[C@@H]1N2CC1CCCC1 | 4.06% (inactive)
CC(C)c1ccccc1NC(=O)COC(=O)CCN1C(=O)/C(=C\C=C\c2ccccc2)SC1=S | 19.1% (inactive)
Nc1ccc(Oc2ccccc2-c2ccccc2)cc1 | 5.42% (inactive)
CC(NC(=O)c1ccco1)c1nc(-c2ccc(C(C)(C)C)cc2)no1 (stereo not drawn) | -6.69% (inactive)
CC(C)(C)c1ccc(/C=N/Nc2ccc(C(=O)O)cc2)cc1 | 1.96% (inactive)
CCOc1cc2[nH]c(=S)n(Cc3ccc(C(=O)NCCN(CC)CC)cc3)c(=O)c2cc1OCC | 11.4% (inactive)
O=C(CN1C(=O)C(=O)c2ccccc21)c1ccc(Cl)cc1 | -1.64% (inactive)
CN(C)[C@@H]1CCC[C@@H]1OC(=O)C(c1ccccc1)c1ccccc1 | 10.9% (inactive)
CCCCCCN(C(=O)CCCCCN1C(=O)NC(c2ccc(Cl)cc2)C(C(=O)OCc2ccccc2)=C1C)C(C(=O)NCCCC)c1ccc(OCC(=O)OC)c(C(=O)OC)c1 (stereo not drawn) | 8.62% (inactive)
CCOc1ccc(N=C2C(=O)Nc3ccc(C)c(Br)c32)cc1 | 8.53% (inactive)
CCn1c(C)cc(C(=O)CN2C(=O)c3ccccc3S2(=O)=O)c1C | 9.04% (inactive)
Cc1ccccc1N=CC1=C(O)c2ccccc2C1=O | 20.2% (inactive)
S=C(NCCN1CCOCC1)Nc1ccccc1Cl | 11.4% (inactive)
CCCn1nnc(NC(=S)NC(=O)C(C)(C)C)n1 | 17.3% (inactive)
O=C1CCC2S/C(=C/Nc3ccc(C(F)(F)F)cc3)C(=O)N12 (stereo not drawn) | 11.9% (inactive)
COc1ccc(Nc2ncnc3ccc(Br)cc23)c(OC)c1 | 6.89% (inactive)
COC(=O)C[C@H]1CC[C@H]2[C@H](COc3ccc(NC(=O)Nc4cccc(Cl)c4)cc3C(=O)N2C)O1 | -2.79% (inactive)
COc1cc(OC)cc(-c2cc3nc(C)c(CCC(=O)O)c(C)n3n2)c1 | 13.7% (inactive)
CCOc1ccc(NC(=O)C(=O)N/N=C\c2ccc(CNS(=O)(=O)c3ccccc3)o2)cc1 | 17.4% (inactive)

Compound | activity change, negative = cytotoxicity
CCOC(=O)C1CCCCN1C(=O)CCc1c(C)nc2cc(-c3ccccc3)nn2c1C (stereo not drawn) | 11.3% (inactive)
CCc1ccc(/C=C2\SC(=S)N(CCCC(=O)NC3=NCCS3)C2=O)cc1 | 13.5% (inactive)
O=C(O)c1ccc(N/N=C/c2cc(Br)cs2)cc1 | 25.7% (inactive)
N#C[C@@H]1[C@H](c2ccc(C#Cc3cccc(F)c3)cc2)[C@@H](CO)N1C(=O)C1CCCC1 | -12.2% (inactive)
COC(=O)C[C@@H]1CC[C@@H]2[C@@H](COc3ccc(NC(=O)Nc4ccc(C#N)cc4)cc3C(=O)N2C)O1 | 15% (inactive)
COc1ccccc1/C=C1\SC(=S)N(CCC(=O)Nc2cc(C)on2)C1=O | 6.74% (inactive)
C[C@@H]1CN([C@@H](C)CO)C(=O)c2cccc(NC(=O)Nc3ccccc3)c2O[C@@H]1CN(C)Cc1ccc(-c2ccccc2)cc1 | 20.4% (inactive)
C[C@@H]1CCCCO[C@H](CN(C)Cc2ccc(C(F)(F)F)cc2)[C@H](C)CN([C@H](C)CO)C(=O)c2cc(NC(=O)CCCN(C)C)ccc2O1 | -2.5% (inactive)
CCOC(=O)Cc1csc(NC(=S)NC(=O)c2ccc(C)cc2)n1 | 19.7% (inactive)
Cc1ccc(C(=O)O/N=C(\N)c2ccccn2)cc1 | -10% (inactive)
C=CCn1c(O)c(N=Nc2ccccc2)c2ccccc21 | 10.5% (inactive)
CCOc1ccc(-c2cc(CCCC(=O)NCc3ccc(C)cc3)no2)cc1 | -3.16% (inactive)
CCOc1ccc(-c2cc(CCCC(=O)N3CCN(c4ccc(OC)cc4)CC3)no2)cc1 | -1.53% (inactive)
Cc1occc1-c1n[nH]c(=S)n1C | 0.805% (inactive)
O=C1NC(=O)N(CCc2ccc(F)cc2)C(=O)/C1=C/C=C/c1ccccc1 | 11.3% (inactive)
CC(C)c1oc(=O)cc2c1[C@@H](O)[C@H]1OC(=O)[C@@]3(C)CC[C@@H](O)[C@@]2(C)C13 (stereo partly drawn) | -18.6% (inactive)
O=C(O)c1ccc(N/N=C/c2ccc(OC(=O)c3cccc(Cl)c3)cc2)cc1 | -1.51% (inactive)
C[C@@H]1CN([C@@H](C)CO)S(=O)(=O)c2ccc(C#Cc3ccncc3)cc2O[C@H]1CN(C)S(=O)(=O)c1ccccc1 | -2.93% (inactive)
Cc1ccccc1N=Nc1c(O)n(C)c2ccccc12 | 3.17% (inactive)
COC(=O)C[C@@H]1CC[C@@H]2[C@H](COc3ccc(NC(=O)c4cc(F)cc(F)c4)cc3C(=O)N2C)O1 | -5.96% (inactive)
O=C(NCCc1ccccc1)c1ccccc1NC(=O)C1CCCO1 (stereo not drawn) | -0.496% (inactive)
Cc1ccc(/C=C2\SC(=S)N(CCC(=O)NNC(=O)c3ccccc3O)C2=O)cc1 | -7.03% (inactive)
C/C(=N\OCc1cccc(C(=O)O)c1)c1ccc(Cl)cc1 | -12.2% (inactive)
CN(C)c1ccc(/C=N/Nc2nc3ccccc3o2)cc1 | 1.68% (inactive)
CC(=O)Nc1ccc(OCC(=O)N(CC(C)C)C2CCS(=O)(=O)C2)cc1 (stereo not drawn) | 11.9% (inactive)

Compound | activity change, negative = cytotoxicity
CN(C(=O)COC(=O)c1cc(-c2ccccc2Cl)nc2ccccc12)C1CCS(=O)(=O)C1 (stereo not drawn) | 5.31% (inactive)
Cc1noc(C)c1NC(=O)Nc1ccc2c(c1)CC(=O)N([C@H](C)CO)C[C@@H](C)[C@@H](CN(C)Cc1ccc(Cl)c(Cl)c1)O2 | 0.509% (inactive)
COc1ccc(/C=C2\Oc3ccccc3C2=O)cc1 | -14.5% (inactive)
CO[C@H]1CN(C)C(=O)c2cc(NC(=O)c3ccc(Oc4ccccc4)cc3)ccc2OC[C@H](C)NC[C@@H]1C | -22.7% (inactive)
COc1ccc(/C=C2\SC(=S)N(CCCC(=O)NC3CCCC3)C2=O)cc1OC | -1.55% (inactive)
CCN(CC)C(=O)CN1C(=O)C(=O)c2ccccc21 | 6.39% (inactive)
CCN(CC)c1ccc(C2NC(=O)c3ccccc3N2)cc1 (stereo not drawn) | -26.2% (inactive)
Cc1ccsc1/C=N/Nc1ccc(C(=O)O)cc1 | -11.1% (inactive)
Nc1ccc(Oc2cccc(Oc3ccc(N)cc3)c2)cc1 | -7.72% (inactive)
O=C(NCc1ccccn1)c1ccc(CNS(=O)(=O)c2cccc(Cl)c2)cc1 | 3.71% (inactive)
CC(C)(C)C(=O)Nc1ccc(N=Nc2ccccc2)cc1 | -0.79% (inactive)
CC(Oc1cccc(Cl)c1)C(=O)NCCCCc1ccccc1 (stereo not drawn) | 13.3% (inactive)
CCOc1cc2[nH]c(=S)n(Cc3ccc(C(=O)N4CCN(C)CC4)cc3)c(=O)c2cc1OCC | 11.2% (inactive)
C(=N\Nc1ccc2ccccc2n1)/c1ccc2c(c1)OCCO2 | -8.46% (inactive)
COc1ccc(/C=C2\SC(=S)N(CCCC(=O)Nc3ccc(O)cc3)C2=O)cc1 | 0.096% (inactive)
O=C(CN1C(=O)c2ccccc2S1(=O)=O)c1ccc(F)cc1 | 12.8% (inactive)
N#Cc1cccc(-c2ccc(C3[C@@H]4CN(C(=O)Cc5ccncc5)C[C@H]3N4)cc2)c1 (stereo partly drawn) | 0.809% (inactive)
COc1cc(C(c2c(C)[nH][nH]c2=O)c2c(C)[nH][nH]c2=O)ccc1OC(C)C | 3.29% (inactive)
C=CC[n+]1c(-c2ccc(C)cc2)csc1Nc1ccc(NC(C)=O)cc1 | 0.856% (inactive)
C=CCOc1ccccc1C(=O)/C=C1/C(=O)Nc2ccccc21 | -30.1% (inactive)
COc1ccc(/C=C2\SC(=O)N(CCCC(=O)Nc3cc(Cl)ccc3C(=O)O)C2=O)cc1 | 5.69% (inactive)
Cc1c(Cl)cnc(NC(=O)COC(=O)c2ccc3ncsc3c2)c1Cl | 5.39% (inactive)
COc1ccccc1-c1cn(CC[C@H]2CC[C@@H](NC(=O)C3CCCC3)[C@@H](CO)O2)nn1 | 12.9% (inactive)
Cc1ccc(/C=C2\SC(=S)N(CCCC(=O)NNC(=O)c3ccccc3O)C2=O)cc1 | -5.43% (inactive)
C[C@@H]1CN([C@H](C)CO)C(=O)c2cc(NC(=O)Nc3ccccc3)ccc2O[C@@H]1CN(C)Cc1ccc(C(=O)Nc2ccccc2N)cc1 | -33.9% (inactive)

From PubChem BioAssay AID720570 (Broad Institute, 2013)
